Tested on: cell aggregate containing a retinal tissue (RAX::GFP knock-in human ES cells, derived from KhES-1)
Assay: Suspension culture of a human ES cell-derived cell aggregate containing retinal tissue in serum-free medium with a substance acting on the Wnt signal pathway; cryosection immunostaining
Format: cell-based
Settings: 3 μM CHIR99021, serum-free medium, 3 days from day 18 of suspension culture
Protocol: The “proportion of Chx10 positive cells” in a retinal tissue contained in a cell aggregate produced as mentioned above can be examined by, for example, the following method. • (1) First, a cryosection of “a cell aggregate comprising a retinal tissue” is prepared. • (2) Then, immunostaining of Rax protein or, when a gene recombinant cell obtained by altering a Rax gene expressing cell to express a fluorescence protein such as GFP is used, the expression of the aforementioned fluorescence protein, is observed using a fluorescence microscope and so on, whereby a retinal tissue region expressing Rax gene is specified. • (3) Using the same section as the cryosection wherein the retinal tissue region expressing Rax gene has been specified or an adjacent section as a sample, the nucleus is stained with a nuclear staining reagent such as Dapi. Then, the number of stained nuclei in the above-specified retinal tissue region expressing Rax gene is counted, whereby the number of the cells in the retinal tissue region is measured. • (4) Using the same section as the cryosection wherein the retinal tissue region expressing Rax gene has been specified or an adjacent section as a sample, Chx10 protein is immunostained. […]

## Cc1c[nH]c(-c2cnc(NCCNc3ccc(C#N)cn3)nc2-c2ccc(Cl)cc2Cl)n1 [CHIR99021]
  appearance of RPE65 gene expressing cell in the cell aggregate: did not appear
About 40% before addition
  proportion of Chx10 positive cells in the retinal tissue: about 3%

— patent US11542471B2, “Method for producing ciliary marginal zone-like structure” (SUMITOMO CHEMICAL COMPANY, LIMITED, priority 2012, dated 2023)
